2 compounds from patent publication US20080200405A1, “Drug Resistance Reversal In Neoplastic Disease” (priority 2007, published 2008) can be followed below.

For series [1], the system named is selenite induced cataract. Description: Selenite induced cataract in mice. Conditions: mouse, in vivo. An excerpt: In addition, as mentioned above, there is no precedent for the prevention of growth factor-induced angiogenesis by either TEMPOL or hydroxylamines.
The nature of series [2]: In vitro stability in rat, rabbit, dog, and human plasma (overall statement). It is filed as in vitro ADME. Conditions: 240 minute incubation in plasma. The procedure: The active metabolite of OT-551 (Cyclopropanecarboxylic acid 1-hydroxy-2,2,6,6-tetramethyl-piperidin-4-yl ester) is TP-H. The objective of this analysis was to determine the in vitro half-life of OT-551 in rat, rabbit, dog, and human plasma under standardized incubation conditions.
OT-551 was incubated with pooled rat, rabbit, dog, and human plasma for various times under standardized incubation conditions. Pre-labeled tubes containing pooled plasma from rats, rabbits, dogs, and humans were pre-incubated in a shaking 37° C. water bath. A OT-551 solution was added to the tubes at a final concentration of 1000 ng/mL. Time zero samples (n=5) were immediately removed and transferred into tubes containing a stabilizer solution (DTPA, acetylcysteine and ascorbic acid), the LC/MS/MS assay internal standard and methanol. […] The tubes were vortexed, placed on ice, followed by centrifugation. One hundred-μL aliquots of the supernatant were transferred into HPLC sample vials. Additional tubes (n=5 at each time point) were incubated for 5, 10, 20, 30, 60, 120, and 240 minutes at 37° C. and thereafter processed. The amount of OT-551 and TP-H in each incubated sample was quantified using validated LC/MS/MS assays.

Series [3] has as its system H2O2-induced angiogenesis in the CAM model. Description: H2O2-induced angiogenesis in the CAM model. In kind it is in vivo, chicken. The settings on record: for % Inhibition ± SD / Branch pts ± SEM: H2O2 88 μM, 30 ng. The protocol:
In vivo neovascularization was examined by the method previously described by Auerbach et al. (J. Dev. Biol. 41:391-394 (1974)). Ten-day old chicken embryos were purchased from Spafas, Inc. (Preston, Conn.) and were incubated at 37° C. with 55% relative humidity. In the dark, with the aid of a candling lamp, a small hole was punctured in the shell concealing the air sac with a hypodermic needle. A second hole was punctured in the shell on the broadside of the egg directly over an […] portion of the embryonic membrane, as observed during candling. An artificial air sac was created beneath the second hole by applying gentle vacuum to the first hole using a small rubber squeeze bulb. The vacuum caused the chorioallantoic membrane (CAM) to separate from the shell.
A pro-angiogenic agent was added to induce new blood vessel branches on the CAM of 10-day old embryos. Filter disks of #1 filter paper (Whatman International, United Kingdom) were punched using a small puncher and were soaked in 3 mg/mL cortisone acetate (Sigma, St. Louis, Mo.) in a solution (95% ethanol and water). The disks were subsequently air dried under sterile conditions. The disks were then suspended in PBS (Phosphate Buffered Saline) and placed on growing CAMs. Filters treated with TP-H (TEMPOL-H) or TEMPOL and/or H2O2 or TP-H and/or bFGF or VEGF were placed on the first day of the 3-day incubation.
The number of vessel branch points contained in a circular region equal to the area of a filter disk was counted for each section. Percent inhibition data are expressed as the quotient of the experimental value minus the negative control value divided by the difference between the positive control value and the negative control value. One image was counted in each CAM preparation, and findings from eight CAM preparations were analyzed for each treatment condition. In addition, each experiment was performed three times. The resulting angiogenesis index is the mean ±SEM (Standard Error of Measurement) of new branch points in each set of treatment. Statistical analysis of blood vessel branching patterns are performed by 1-way analysis of variance (ANOVA) comparing experimental with corresponding control groups. Statistical significance differences are assessed at P value of <0.05.
TP-H (TEMPOL-H, the hydroxylamine reduced form of the nitroxide 4-hydroxy-2,2,6,6-tetramethylpiperidin-1-yloxy) or TEMPOL (4-hydroxy-2,2,6,6-tetramethylpiperidine-N-oxyl radical) was applied to the CAM model study to determine its respective anti-angiogenesis effects according to the materials and methods provided in Example 1. H2O2 was used to induce angiogensis in the CAM model.

The test system of series [4] is Human whole blood clot formation. Conditions: compound 4 at 1 ug and 10 ug.
In series [5] the test system is drug sensitive and resistant cell lines SKN-SH, Neuro2A, Saos2, HL-60. In words: Reversal of drug resistance in various cancer types (OT-551 with or without doxorubicin). It is filed as cell-based, human, murine. The settings on record: in combination with doxorubicin; 96 hours. The procedure:
This example illustrates that OT-551 and analogs reverse drug resistance to non-anthracycline drugs in various cancer types. The effects of analogs were tested on drug sensitive and resistant (R) cell lines corresponding to various cancer types, including the human neuroblastoma cell line SKN-SH (ATCC Cat. No. HTB-1), the murine neuroblastoma cell line Neuro2A (ATCC Cat. No. CCL-131), the osteosarcoma cells Saos2 (ATCC Cat. No. HTB-85) and the leukemia cell line HL-60 (ATCC Cat. No. CCL240). The cells were treated with OT-551 with or without doxorubicin as described above. Cell viability was calculated after 96 hours of incubation with the drug combination.

As for `CC1(C)CC(O)CC(C)(C)N1O` [TEMPOL-H], the “prevention of selenite induced cataract” value in series [1] is “effective”. Moreover, the “stability of TP-H during the incubation period” value in series [2] is “stable during the 240 minute incubation period”. The “% Inhibition ± SD” value is given as 28.0 ± 13.6 % in series [3] (100 μg), 32.9 ± 8.4 % in series [3] (200 μg), 44.7 ± 6.6 % in series [3] (400 μg) and 55.7 ± 7.2 % in series [3] (800 μg). Also, the “Branch pts ± SEM” value in series [3] (100 μg) came to 155 ± 14.4; in series [3] (200 μg), 151.3 ± 15.3; in series [3] (400 μg) it was 137.2 ± 6.9; in series [3] (800 μg), 127.3 ± 6.4. Moreover, the “inhibition of angiogenesis induced by super-maximal concentrations of H2O2” value in series [3] (in vivo) was “effectively inhibited”.

Consider `CC1(C)CC(OC(=O)C2CC2)CC(C)(C)N1O.Cl` [OT-551, 1-hydroxy-4-cyclopropanecarbonyloxy-2,2,6,6-tetramethylpiperidine hydrochloride], for which the “effect on clot formation with Bevacizumab/Ranibizumab” value in series [4] was “completely abrogated the clot formation”. In addition, the “effect on doxorubicin toxicity” value in series [5] is listed as “able to enhance doxorubicin toxicity in all the drug resistant cell lines tested”.
